Read-outs that look alike come from different tables or passages of the source.
Key:
[1] = target: KPC-2 (K. pneumoniae) (Klebsiella pneumoniae, UniProt Q9F663); assay: biochemical
[2] = target: AmpC (P. aeruginosa) (Pseudomonas aeruginosa (strain ATCC 15692 / DSM 22644 / CIP 104116 / JCM 14847 / LMG 12228 / 1C / PRS 101 / PAO1), UniProt P24735); assay: biochemical
Experimental: The Class C enzyme activities were measured in the presence of the test inhibitor in spectrophotometric assay against the commercially available substrate, nitrocefin. The enzyme AmpC (P. aeruginosa.), and the substrate, were dissolved in 100 mM KH2PO4 buffer (pH 7). The buffer also contains 0.005% BSA. The test inhibitor was dissolved in DMSO and diluted 1:20 in the assay, resulting in a final concentration range of 50 μM to 0.0002 μM. In a 96-well microplate, the test inhibitor was incubated with the beta-lactamase enzyme for 40 minutes at ambient temperature, the substrate solution was added, and the incubation continued for another 40 minutes. […] The IC50 value was determined from semi logarithmic plots of enzyme inhibition versus inhibitor concentration, with a curve generated using a 4-parameter fit.

[3] = Table 3, read-out: K.p. KPC-2 IC50
[4] = Table 3, read-out: P.a. AmpC IC50

AmpC (P. aeruginosa), sequence (P24735 27-397): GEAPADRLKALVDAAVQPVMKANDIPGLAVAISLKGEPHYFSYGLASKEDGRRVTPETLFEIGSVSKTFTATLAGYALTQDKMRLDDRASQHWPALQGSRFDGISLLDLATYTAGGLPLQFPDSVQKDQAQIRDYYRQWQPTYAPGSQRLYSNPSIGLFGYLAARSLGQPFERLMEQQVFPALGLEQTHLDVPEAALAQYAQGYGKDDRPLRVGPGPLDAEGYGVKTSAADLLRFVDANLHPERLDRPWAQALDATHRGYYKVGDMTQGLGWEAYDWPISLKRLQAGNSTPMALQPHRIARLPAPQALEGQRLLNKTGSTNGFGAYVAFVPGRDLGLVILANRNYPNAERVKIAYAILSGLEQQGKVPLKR
KPC-2 (K. pneumoniae), sequence (Q9F663 25-293 limits assumed): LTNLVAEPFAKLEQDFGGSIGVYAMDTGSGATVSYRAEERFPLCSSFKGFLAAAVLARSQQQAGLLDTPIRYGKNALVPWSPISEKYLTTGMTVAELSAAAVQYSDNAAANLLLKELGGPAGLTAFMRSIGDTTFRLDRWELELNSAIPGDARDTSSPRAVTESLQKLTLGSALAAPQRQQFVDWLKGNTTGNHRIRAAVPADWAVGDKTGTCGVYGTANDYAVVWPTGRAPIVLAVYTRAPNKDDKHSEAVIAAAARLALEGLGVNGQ

| SMILES | IC50 [1, 3] | IC50 [2, 4] | further results |
| --- | --- | --- | --- |
| O=C(Nc1ccc2c(c1)CNC2)[C@@H]1CC[C@@H]2CN1C(=O)N2OS(=O)(=O)O [Example 65] | 60 nM | 16 nM |  |
| O=C(NC[C@@H]1CNCCCO1)[C@@H]1CC[C@@H]2CN1C(=O)N2OS(=O)(=O)O [Example 42] |  |  | IC50 ([1]; K.p. KPC-2 IC50, Table 3): 110 nM; IC50 [2]: 100 nM |
| O=C(Nc1cnccn1)[C@@H]1CC[C@@H]2CN1C(=O)N2OS(=O)(=O)O [Example 83] | 58 nM | 6 nM |  |
| O=C(OCC1CNCCCO1)[C@@H]1CC[C@@H]2CN1C(=O)N2OS(=O)(=O)O (some centres unmarked) [Example 114] | 11 nM | 340 nM |  |
| O=C(N[C@@H]1CCNC1)[C@@H]1CC[C@@H]2CN1C(=O)N2OS(=O)(=O)O [Example 21] |  | 29100 nM | IC50 ([1]; K.p. KPC-2 IC50, Table 3): 4300 nM |
| CN(C)C1CCN(C(=O)[C@@H]2CC[C@@H]3CN2C(=O)N3OS(=O)(=O)O)C1 (some centres unmarked) [Example 56] | 1600 nM | 270 nM |  |
| O=C(Nc1nc2c(s1)CNCC2)[C@@H]1CC[C@@H]2CN1C(=O)N2OS(=O)(=O)O [Example 89] | 39 nM | 10 nM |  |
| O=C(O[C@@H]1CCNC1)[C@@H]1CC[C@@H]2CN1C(=O)N2OS(=O)(=O)O [Example 94] | 40 nM |  | IC50 [2]: 3000 nM |
| O=C(N[C@@H]1CCNC[C@@H]1F)[C@@H]1CC[C@@H]2CN1C(=O)N2OS(=O)(=O)O [Example 25] | 270 nM |  | IC50 [2]: 20 nM |
| O=C(NCC1CCNCC1)[C@@H]1CC[C@@H]2CN1C(=O)N2OS(=O)(=O)O [Example 40] |  | 30 nM | IC50 ([1]; K.p. KPC-2 IC50, Table 3): 77 nM |
| CC(=O)Oc1ccc(C(=O)NCCOC(=O)[C@@H]2CC[C@@H]3CN2C(=O)N3OS(=O)(=O)O)cc1OC(C)=O [Example 116] | 70 nM | 440 nM |  |
| NCc1ccccc1NC(=O)[C@@H]1CC[C@@H]2CN1C(=O)N2OS(=O)(=O)O [Example 59] | 109 nM |  | IC50 [2]: 292 nM |
| O=C(Nc1ccc(N2CCNCC2)cn1)[C@@H]1CC[C@@H]2CN1C(=O)N2OS(=O)(=O)O [Example 80] | 15 nM | 2 nM |  |
| CO[C@H]1CNCC[C@H]1NC(=O)[C@@H]1CC[C@@H]2CN1C(=O)N2OS(=O)(=O)O [Example 26] |  |  | IC50 ([1]; K.p. KPC-2 IC50, Table 3): 290 nM; IC50 [2]: 120 nM |
| O=C(O[C@@H]1CNC[C@H]1F)[C@@H]1CC[C@@H]2CN1C(=O)N2OS(=O)(=O)O [Example 105] | 13 nM |  | IC50 [2]: 200 nM |
| CN(C)Cc1ccc(NC(=O)[C@@H]2CC[C@@H]3CN2C(=O)N3OS(=O)(=O)O)cc1 [Example 62] | 54 nM | 18 nM |  |
| O=C(N[C@H]1CCCNC[C@H]1F)[C@@H]1CC[C@@H]2CN1C(=O)N2OS(=O)(=O)O [Example 36] | 130 nM | 18 nM |  |
| O=C(Nc1ccc(C2CCNCC2)cn1)[C@@H]1CC[C@@H]2CN1C(=O)N2OS(=O)(=O)O [Example 17, (2S,5R)-7-Oxo-N-(5-piperidin-4-ylpyridin-2-yl)-6-(sulfooxy)-1,6-diazabicyclo[3.2.1]octane-2-carboxamide] |  | 6 nM |  |
| O=C(O[C@@H]1CNC[C@@H]1F)[C@@H]1CC[C@@H]2CN1C(=O)N2OS(=O)(=O)O [Example 103] | 3 nM |  | IC50 [2]: 39 nM |
| CN(C(=O)[C@@H]1CC[C@@H]2CN1C(=O)N2OS(=O)(=O)O)C1CCNCC1 [Example 48] | 2500 nM | 290 nM |  |
| NS(=O)(=O)c1ccc(NC(=O)[C@@H]2CC[C@@H]3CN2C(=O)N3OS(=O)(=O)O)cc1 [Example 69] | 22 nM | 7 nM |  |

| SMILES | IC50 [1, 3] | IC50 [2, 4] | further results |
| --- | --- | --- | --- |
| Nc1cccc(NC(=O)[C@@H]2CC[C@@H]3CN2C(=O)N3OS(=O)(=O)O)n1 [Example 74] | 11 nM | 8 nM |  |
| O=C(NC(CO)C1CCNCC1)[C@@H]1CC[C@@H]2CN1C(=O)N2OS(=O)(=O)O (some centres unmarked) [Example 41] | 320 nM |  | IC50 [2]: 700 nM |
| NC(=O)c1ccc(NC(=O)[C@@H]2CC[C@@H]3CN2C(=O)N3OS(=O)(=O)O)cc1 [Example 68] | 30 nM | 7 nM |  |
| NC1CCN(C(=O)[C@@H]2CC[C@@H]3CN2C(=O)N3OS(=O)(=O)O)CC1 [Example 50] | 8 nM | 820 nM |  |
| CC1(C)[C@H](C(=O)O)N2C(=O)C[C@H]2S1(=O)=O [Sulbactam, sulbactam, reference compound] |  |  | IC50 ([1]; Table 2, read-out: K.p. KPC-2 IC50): 33000 nM; IC50 ([2]; Table 2, read-out: P.a. AmpC IC50): 17000 nM |
| O=C(OC1CNC1)[C@@H]1CC[C@@H]2CN1C(=O)N2OS(=O)(=O)O [Example 96] | 18 nM | 600 nM |  |
| O=C(Nc1cc(N2CCCC2)nc(N2CCCC2)c1)[C@@H]1CC[C@@H]2CN1C(=O)N2OS(=O)(=O)O [Example 73] | 130 nM | 515 nM |  |
| O=C(Nc1cccnc1)[C@@H]1CC[C@@H]2CN1C(=O)N2OS(=O)(=O)O [Example 71] | 42 nM |  | IC50 [2]: 37 nM |
| O=C(Nc1cc(C2CCNCC2)ccn1)[C@@H]1CC[C@@H]2CN1C(=O)N2OS(=O)(=O)O [Example 78] | 470 nM | 0.8 nM |  |
| O=C(O[C@@H]1CNOC1)[C@@H]1CC[C@@H]2CN1C(=O)N2OS(=O)(=O)O [Example 108] | 11 nM | 62 nM |  |
| O=C(NCC1CCCN1)[C@@H]1CC[C@@H]2CN1C(=O)N2OS(=O)(=O)O (some centres unmarked) [Example 38] | 120 nM | 250 nM |  |
| O=C(NCC1(F)CNC1)[C@@H]1CC[C@@H]2CN1C(=O)N2OS(=O)(=O)O [Example 37] | 120 nM | 40 nM |  |
| O=C(OCC1CCNCC1)[C@@H]1CC[C@@H]2CN1C(=O)N2OS(=O)(=O)O [Example 18, Piperidin-4-ylmethyl(2S,5R)-7-oxo-6-(sulfooxy)-1,6-diazabicyclo[3.2.1]octane-2-carboxylate] | 10 nM | 180 nM |  |
| NCC1CCCCN1C(=O)[C@@H]1CC[C@@H]2CN1C(=O)N2OS(=O)(=O)O (some centres unmarked) [Example 49] | 780 nM | 7500 nM |  |
| O=C(O[C@H]1CNOC1)[C@@H]1CC[C@@H]2CN1C(=O)N2OS(=O)(=O)O [Example 107] | 11 nM | 39 nM |  |
| O=C(NC1CCCNC1)[C@@H]1CC[C@@H]2CN1C(=O)N2OS(=O)(=O)O (single isomer, unassigned) [Example 19b] | 240 nM | 480 nM |  |
| O=C(NCCN1CCNCC1)[C@@H]1CC[C@@H]2CN1C(=O)N2OS(=O)(=O)O [Example 46] | 96 nM | 42 nM |  |
| O=C(O[C@H]1CNC[C@H]1F)[C@@H]1CC[C@@H]2CN1C(=O)N2OS(=O)(=O)O [Example 104] | 24 nM |  | IC50 [2]: 38 nM |
| O=C(NC1CCNC1)[C@@H]1CC[C@@H]2CN1C(=O)N2OS(=O)(=O)O (stereo in doubt) [Example 14, (2S,5R)-7-oxo-N-[(3R)-pyrrolidin-3-yl]-6-(sulfooxy)-1,6-diazabicyclo[3.2.1]octane-2-carboxamide] |  | 110 nM | IC50 ([1]; K.p. KPC-2 IC50, Table 3): 355 nM |
| O=C(N[C@@H]1CNC[C@@H]1O)[C@@H]1CC[C@@H]2CN1C(=O)N2OS(=O)(=O)O [Example 30] | 520 nM | 2250 nM |  |
| NCc1ccc(NC(=O)[C@@H]2CC[C@@H]3CN2C(=O)N3OS(=O)(=O)O)nc1 [Example 77] | 42 nM | 3 nM |  |

Reference: patent US8487093B2, “β-lactamase inhibitors” (Merck Sharp & Dohme Corp., priority 2008, dated 2013)
